{
  "source": "patent US8053463B2",
  "about": "“PPAR active compounds” (Plexxikon Inc., priority 2007, dated 2011)",
  "origin": "cited, not measured here",
  "key": {"PPARδ": {"target": "T1, PPARδ (Homo sapiens, UniProt Q03181)", "T1 sequence (Q03181 1-441)": "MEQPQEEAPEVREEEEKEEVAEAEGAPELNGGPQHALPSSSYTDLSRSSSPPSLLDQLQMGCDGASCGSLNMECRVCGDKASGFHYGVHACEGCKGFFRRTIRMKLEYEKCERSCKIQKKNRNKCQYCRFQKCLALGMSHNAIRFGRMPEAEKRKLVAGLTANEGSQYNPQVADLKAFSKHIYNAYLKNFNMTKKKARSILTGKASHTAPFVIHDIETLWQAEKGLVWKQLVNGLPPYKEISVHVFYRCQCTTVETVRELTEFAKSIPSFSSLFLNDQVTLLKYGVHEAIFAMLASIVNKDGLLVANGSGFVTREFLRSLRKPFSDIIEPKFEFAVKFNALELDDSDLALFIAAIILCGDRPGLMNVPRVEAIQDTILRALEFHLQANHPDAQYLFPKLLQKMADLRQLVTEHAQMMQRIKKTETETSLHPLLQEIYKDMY"}, "murine PPARα": {"target": "T2, murine PPARα (Mus musculus, UniProt P23204)", "T2 sequence (P23204 1-468)": "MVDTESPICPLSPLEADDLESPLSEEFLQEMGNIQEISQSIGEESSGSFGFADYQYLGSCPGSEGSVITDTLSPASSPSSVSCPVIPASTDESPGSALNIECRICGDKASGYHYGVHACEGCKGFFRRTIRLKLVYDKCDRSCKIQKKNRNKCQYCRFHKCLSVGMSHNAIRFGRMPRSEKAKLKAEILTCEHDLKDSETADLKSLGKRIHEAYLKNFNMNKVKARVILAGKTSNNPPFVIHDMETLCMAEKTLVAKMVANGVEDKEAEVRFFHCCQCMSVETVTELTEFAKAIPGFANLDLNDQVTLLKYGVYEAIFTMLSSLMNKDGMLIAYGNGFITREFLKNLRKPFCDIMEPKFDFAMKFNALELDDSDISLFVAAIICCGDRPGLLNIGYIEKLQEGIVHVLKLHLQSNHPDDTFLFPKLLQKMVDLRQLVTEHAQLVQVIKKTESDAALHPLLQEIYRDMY"}},
  "data": [
    {"compound": "CCCc1c(OCCCOc2ccc(OCC(=O)O)cc2)ccc(C(C)=O)c1O", "note": "[Compound L-165041]", "values": [
      {"measurement": "agonist selectivity for PPARδ over PPARγ", "setting": "PPARδ", "value": "approximately 30 fold"},
      {"measurement": "activity on murine PPARα", "setting": "murine PPARα", "value": "inactive"}
    ]}
  ]
}
